The numbers were not newly measured in patent US20080249137A1, “PPAR active compounds” (priority 2005, published 2008), which cites them from elsewhere.

The conditions of data set [1]: patients, large prospective trial.
The target of another data set is T1, PPARδ (Homo sapiens, UniProt Q03181).
T1 sequence (Q03181 1-441): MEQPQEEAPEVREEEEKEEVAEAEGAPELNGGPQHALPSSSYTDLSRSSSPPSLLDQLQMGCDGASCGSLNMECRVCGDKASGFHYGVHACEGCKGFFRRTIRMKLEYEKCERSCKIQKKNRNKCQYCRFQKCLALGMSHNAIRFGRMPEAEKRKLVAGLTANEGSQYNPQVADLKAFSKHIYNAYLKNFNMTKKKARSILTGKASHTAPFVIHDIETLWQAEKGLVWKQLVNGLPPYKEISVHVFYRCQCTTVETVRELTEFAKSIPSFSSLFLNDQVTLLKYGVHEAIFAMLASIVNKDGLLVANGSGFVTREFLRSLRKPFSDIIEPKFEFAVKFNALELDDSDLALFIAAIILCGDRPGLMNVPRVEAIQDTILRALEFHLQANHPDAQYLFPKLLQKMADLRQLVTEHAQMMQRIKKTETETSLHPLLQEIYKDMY

For the next data set, the target named is T2, murine PPARα (Mus musculus, UniProt P23204).
T2 sequence (P23204 1-468): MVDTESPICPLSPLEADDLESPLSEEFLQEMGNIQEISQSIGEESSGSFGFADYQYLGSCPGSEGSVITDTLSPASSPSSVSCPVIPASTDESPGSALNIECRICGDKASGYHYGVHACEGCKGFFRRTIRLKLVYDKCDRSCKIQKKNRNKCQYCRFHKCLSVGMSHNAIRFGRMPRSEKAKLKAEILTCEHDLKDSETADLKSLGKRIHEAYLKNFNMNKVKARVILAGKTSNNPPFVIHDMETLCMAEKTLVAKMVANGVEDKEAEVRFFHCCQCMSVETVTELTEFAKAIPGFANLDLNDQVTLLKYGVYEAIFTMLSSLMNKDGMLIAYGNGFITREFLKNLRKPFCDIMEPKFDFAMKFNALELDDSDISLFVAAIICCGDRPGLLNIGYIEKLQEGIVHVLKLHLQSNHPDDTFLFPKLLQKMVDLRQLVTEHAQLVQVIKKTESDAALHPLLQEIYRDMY

In the case of `Cc1ccc(C)c(OCCCC(C)(C)C(=O)O)c1` [gemfibrozil], the “reduction in cardiovascular events or death” value in data set [1] is listed as 22%.
Consider `CCCc1c(OCCCOc2ccc(OCC(=O)O)cc2)ccc(C(C)=O)c1O` [Compound L-165041], for which, on PPARδ, the “agonist selectivity for PPARδ over PPARγ” value is recorded as “approximately 30 fold”. For the same compound, the “activity on murine PPARα” value at murine PPARα was “inactive”.
